Values joined by “and” are separate entries in the source; they are usually repeats but may differ in a detail not shown here. Equal entries are not always repeated.
Legend:
ADCK3 = biological target: T1, ADCK3 (Homo sapiens, UniProt Q8NI60); experiment: scanMAX binding assay, ADCK3; conditions: Percent of Control; legend and method: 1 μM; read-out: ADCK3 PoC @ 1 µM
T1 construct: purchased Eurofins DiscoverX Corporation (scanMAX)
Excerpt: (§1) As described previously, this commercial assay platform screens against 403 WT human kinases in binding assays and provides PoC values ([73]).

LRP6 = experiment: W. blot of LRP6 phosphorylation after WNT3A in RKO cells; assay type: cell-based, human; conditions: RKO cells pretreated 1 h
Protocol: (§2) Standard W. blot techniques were utilized and performed as previously described ([15], [43]). Briefly, cells were lysed in RIPA lysis buffer, flash frozen on dry ice, and then cleared at high speed for 10 min at maximum speed. Protein concentration was determined by a bicinchoninic acid assay following kit specifications. Samples were balanced, and NuPAGE 4× SDS loading buffer (Thermo Fisher Scientific; catalog no.: NP0007) containing DTT was added to each sample and heated for 10 min at 70 °C. Samples were run on a NuPAGE 4 to 12% Bis–Tris Protein Gel (Thermo Fisher Scientific; catalog no.: NP0321) and then transferred to a nitrocellulose membrane. The membrane was then blocked and incubated overnight with primary antibody at 4 °C with rotation, washed with Tris-buffered saline with Tween-20, incubated with secondary antibody, washed with Tris-buffered saline with Tween-20, and imaged. Images were taken using a LiCOR Odyssey CLx imager and quantified with LiCOR software (LiCOR Biosciences). All antibodies were used at a concentration of 1:1000, with the exception of loading controls, which were used at 1:10,000. […]

TAK1 = biological target: T2, TAK1 (Homo sapiens, UniProt O43318); experiment: scanMAX binding assay, TAK1; conditions: Percent of Control; legend and method: 1 μM; read-out: TAK1 PoC @ 1 µM
T2 construct: purchased Eurofins DiscoverX Corporation (scanMAX)
Excerpt: as §1

CK1γ3 [1] = biological target: T3, CK1γ3 (Homo sapiens, UniProt Q9Y6M4); experiment: Eurofins kinase enzymatic radiometric assay, CK1γ3; assay type: biochemical; conditions: Km = ATP, 9-pt curve in duplicate
T3 construct: purchased Eurofins
Excerpt: (§3) Details related to the substrate used, protein constructs, controls, and assay protocol for each kinase assay are included on the Eurofins website: https://www.eurofinsdiscoveryservices.com/.

CK1γ1 = biological target: T4, CK1γ1 (Homo sapiens, UniProt Q9HCP0); experiment: scanMAX binding assay, CK1γ1; conditions: Percent of Control; legend and method: 1 μM; read-out: CK1γ1 PoC @ 1 µM
T4 construct: purchased Eurofins
Excerpt: as §1

β-catenin = experiment: W. blot of β-catenin stabilization after WNT3A in RKO cells; assay type: cell-based, human; conditions: RKO cells pretreated 1 h, WNT3A 30 or 60 min, compared with dimethyl sulfoxide control
Protocol: as §2

CK1γ2 = biological target: T5, CK1γ2 (Homo sapiens, UniProt P78368); experiment: Eurofins kinase enzymatic radiometric assay, CK1γ2; assay type: biochemical; conditions: Km = ATP, 9-pt curve in duplicate
T5 construct: purchased Eurofins
Excerpt: as §3

CK1γ3 [2] = biological target: T3, CK1γ3; experiment: scanMAX binding assay, CK1γ3; conditions: Percent of Control; legend and method: 1 μM; read-out: CK1γ3 PoC @ 1 µM
Excerpt: as §1

GSK3β (NLuc-GSK3β) = biological target: T6, GSK3β (NLuc-GSK3β) (Homo sapiens, UniProt P49841); experiment: NanoBRET cellular target engagement assay, NLuc-GSK3β in HEK293T cells; assay type: cell-based; conditions: live HEK293T cells, 0.063 μM tracer K-8; read-out: GSK3β NanoBRET assay, inactive up to
T6 construct: host or cells: HEK293T
Protocol: HEK293T cells (hypotriploid, fetal) were purchased from ATCC. These cells were grown in Dulbecco’s modified Eagle’s medium (Gibco) supplemented with 10% (v/v) fetal bovine serum (Corning). They were incubated in 5% CO2 at 37 °C and passaged every 72 h with trypsin and not allowed to reach confluency. Constructs for NanoBRET measurements of CK1γ2 (NLuc-CK1γ2) and GSK3β (NLuc-GSK3β) were kindly provided by Promega. NanoBRET assays were carried out as described previously ([74]). Preferred NLuc orientations, both N-terminal in this case, are indicated in parentheses after each construct. Assays were carried out in dose–response as described by the manufacturer using 0.5 μM of tracer K-10 for CK1γ2 and 0.063 μM of tracer K-8 for GSK3β. Two biological replicates were executed with two technical replicates to produce the graphs with error bars shown in Figures 6E, 7E, 8, A and B. Tracer titration curves for these kinases that motivated our tracer selection and working concentration can be found on the Promega website.

CSNK1A1 = CSNK1A1 (Homo sapiens, UniProt P48729); experiment: scanMAX binding assay, CSNK1A1; conditions: Percent of Control; legend and method: 1 μM; read-out: CSNK1A1 PoC @ 1 µM
Excerpt: as §1

CLK2 = biological target: T7, CLK2 (Homo sapiens, UniProt P49760); experiment: scanMAX binding assay, CLK2; conditions: Percent of Control; legend and method: 1 μM; read-out: CLK2 PoC @ 1 µM
T7 construct: purchased Eurofins DiscoverX Corporation (scanMAX)
Excerpt: as §1

[3] = system: BAR reporter (β-catenin-dependent WNT signaling); experiment: BAR luciferase transcriptional reporter assay in HEK293T B/R cells; assay type: cell-based, human; conditions: HEK293T B/R cells transfected 14 h, 0.1, 1.0 or 10 μM FP1 for 18 h
Protocol: All luciferase reporter assays were performed as previously described ([15], [43]). […] In both loss-of-function and gain-of-function experiments, treatments (WNT3A CM or drug) were added 18 h before harvesting cells. Conditions were plated in triplicate, and Renilla normalized values were averaged across triplicates to yield the data presented and standard error. Each assay was repeated in biological triplicate, unless otherwise stated. Firefly luciferase and the Renilla control were detected using the Promega Dual-Luciferase Reporter Assay System per the manufacturer’s protocol (Promega; catalog no.: E1960). Plates were read on the Victor Nivo plate reader (PerkinElmer).

T3 sequence (Q9Y6M4 whole entry): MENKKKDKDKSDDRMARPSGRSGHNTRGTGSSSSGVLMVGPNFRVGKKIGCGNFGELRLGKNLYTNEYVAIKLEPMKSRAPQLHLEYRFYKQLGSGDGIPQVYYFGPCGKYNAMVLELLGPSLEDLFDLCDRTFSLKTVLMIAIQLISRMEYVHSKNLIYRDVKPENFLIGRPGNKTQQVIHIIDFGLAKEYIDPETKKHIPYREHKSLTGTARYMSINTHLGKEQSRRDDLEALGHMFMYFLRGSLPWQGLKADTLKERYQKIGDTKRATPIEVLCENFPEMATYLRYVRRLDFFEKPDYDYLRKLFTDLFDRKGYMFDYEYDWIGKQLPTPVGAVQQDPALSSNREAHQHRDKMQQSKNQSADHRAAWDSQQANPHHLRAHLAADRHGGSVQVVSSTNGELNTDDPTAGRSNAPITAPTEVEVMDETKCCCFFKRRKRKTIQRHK
T5 sequence (P78368 whole entry): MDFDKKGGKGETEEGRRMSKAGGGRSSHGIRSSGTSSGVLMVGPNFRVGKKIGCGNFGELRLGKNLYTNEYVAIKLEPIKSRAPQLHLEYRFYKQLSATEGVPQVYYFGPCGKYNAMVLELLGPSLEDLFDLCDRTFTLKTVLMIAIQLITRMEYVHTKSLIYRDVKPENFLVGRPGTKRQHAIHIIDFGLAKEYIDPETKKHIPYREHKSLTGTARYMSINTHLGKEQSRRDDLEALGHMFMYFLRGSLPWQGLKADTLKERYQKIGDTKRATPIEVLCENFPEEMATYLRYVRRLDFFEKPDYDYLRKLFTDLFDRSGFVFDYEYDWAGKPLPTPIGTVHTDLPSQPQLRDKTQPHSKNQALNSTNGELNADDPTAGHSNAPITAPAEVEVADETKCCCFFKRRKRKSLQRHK
Sequence of CSNK1A1 (P48729 whole entry): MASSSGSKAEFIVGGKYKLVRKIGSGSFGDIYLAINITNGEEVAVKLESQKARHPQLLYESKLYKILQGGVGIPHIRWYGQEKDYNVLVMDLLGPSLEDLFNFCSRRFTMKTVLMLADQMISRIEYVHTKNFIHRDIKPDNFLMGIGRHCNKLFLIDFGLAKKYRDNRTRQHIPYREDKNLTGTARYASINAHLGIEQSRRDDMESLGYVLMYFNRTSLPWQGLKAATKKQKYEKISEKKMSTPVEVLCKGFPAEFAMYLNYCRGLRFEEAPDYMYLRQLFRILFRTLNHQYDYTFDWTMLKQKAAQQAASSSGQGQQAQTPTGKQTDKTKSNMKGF
T1 sequence (Q8NI60 163-647): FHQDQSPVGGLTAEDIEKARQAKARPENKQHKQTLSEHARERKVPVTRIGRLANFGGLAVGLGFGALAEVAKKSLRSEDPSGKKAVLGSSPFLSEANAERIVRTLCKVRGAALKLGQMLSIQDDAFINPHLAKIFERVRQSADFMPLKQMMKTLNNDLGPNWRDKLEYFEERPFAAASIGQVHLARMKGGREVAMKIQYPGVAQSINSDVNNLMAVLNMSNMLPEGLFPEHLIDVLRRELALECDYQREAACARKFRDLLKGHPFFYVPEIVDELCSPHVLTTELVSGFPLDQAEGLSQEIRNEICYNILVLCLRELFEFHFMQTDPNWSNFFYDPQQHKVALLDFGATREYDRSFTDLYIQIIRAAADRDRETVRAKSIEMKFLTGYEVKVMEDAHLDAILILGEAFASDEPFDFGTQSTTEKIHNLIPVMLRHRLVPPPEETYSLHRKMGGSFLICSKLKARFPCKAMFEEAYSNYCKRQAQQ
T4 sequence (Q9HCP0 whole entry): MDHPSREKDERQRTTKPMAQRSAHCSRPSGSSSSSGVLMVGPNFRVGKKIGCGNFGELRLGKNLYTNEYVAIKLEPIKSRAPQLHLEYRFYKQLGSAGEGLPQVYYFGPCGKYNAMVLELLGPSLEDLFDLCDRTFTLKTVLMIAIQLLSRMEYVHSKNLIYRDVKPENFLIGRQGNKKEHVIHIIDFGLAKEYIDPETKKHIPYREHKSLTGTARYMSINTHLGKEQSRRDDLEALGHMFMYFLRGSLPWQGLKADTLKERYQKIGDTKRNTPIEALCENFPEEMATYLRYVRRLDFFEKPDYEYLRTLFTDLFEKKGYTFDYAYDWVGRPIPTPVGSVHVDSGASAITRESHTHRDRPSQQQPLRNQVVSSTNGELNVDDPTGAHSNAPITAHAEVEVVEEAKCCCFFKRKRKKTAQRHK
T2 sequence (O43318 whole entry): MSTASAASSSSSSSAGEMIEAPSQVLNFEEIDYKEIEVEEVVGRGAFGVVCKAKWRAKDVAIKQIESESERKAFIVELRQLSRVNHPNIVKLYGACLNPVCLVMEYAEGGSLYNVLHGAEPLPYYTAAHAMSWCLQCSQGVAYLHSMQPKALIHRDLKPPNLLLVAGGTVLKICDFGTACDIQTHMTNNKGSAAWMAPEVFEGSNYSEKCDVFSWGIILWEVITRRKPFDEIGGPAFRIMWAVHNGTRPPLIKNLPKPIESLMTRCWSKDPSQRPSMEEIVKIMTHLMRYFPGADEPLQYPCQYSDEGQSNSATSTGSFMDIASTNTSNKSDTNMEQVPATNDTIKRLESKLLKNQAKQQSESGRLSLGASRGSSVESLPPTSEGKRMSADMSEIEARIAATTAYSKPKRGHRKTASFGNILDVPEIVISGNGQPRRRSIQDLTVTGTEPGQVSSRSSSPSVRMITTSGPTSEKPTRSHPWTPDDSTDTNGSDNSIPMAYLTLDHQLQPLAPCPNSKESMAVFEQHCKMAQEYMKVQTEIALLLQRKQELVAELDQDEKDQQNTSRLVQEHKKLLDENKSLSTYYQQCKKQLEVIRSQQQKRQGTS
T7 sequence (P49760 whole entry): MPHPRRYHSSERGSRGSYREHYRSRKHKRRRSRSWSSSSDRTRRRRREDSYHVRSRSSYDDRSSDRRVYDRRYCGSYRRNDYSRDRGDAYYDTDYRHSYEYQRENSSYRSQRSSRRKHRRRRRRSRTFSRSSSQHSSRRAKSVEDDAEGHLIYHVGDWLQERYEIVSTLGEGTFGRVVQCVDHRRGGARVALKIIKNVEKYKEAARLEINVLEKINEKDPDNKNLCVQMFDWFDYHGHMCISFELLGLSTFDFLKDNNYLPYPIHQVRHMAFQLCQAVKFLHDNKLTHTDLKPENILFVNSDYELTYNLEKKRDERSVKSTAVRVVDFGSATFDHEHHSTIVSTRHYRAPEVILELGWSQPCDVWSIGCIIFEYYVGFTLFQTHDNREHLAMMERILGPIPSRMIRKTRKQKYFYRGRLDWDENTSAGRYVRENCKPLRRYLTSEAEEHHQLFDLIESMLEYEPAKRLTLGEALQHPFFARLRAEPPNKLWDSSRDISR
T6 sequence (P49841 whole entry): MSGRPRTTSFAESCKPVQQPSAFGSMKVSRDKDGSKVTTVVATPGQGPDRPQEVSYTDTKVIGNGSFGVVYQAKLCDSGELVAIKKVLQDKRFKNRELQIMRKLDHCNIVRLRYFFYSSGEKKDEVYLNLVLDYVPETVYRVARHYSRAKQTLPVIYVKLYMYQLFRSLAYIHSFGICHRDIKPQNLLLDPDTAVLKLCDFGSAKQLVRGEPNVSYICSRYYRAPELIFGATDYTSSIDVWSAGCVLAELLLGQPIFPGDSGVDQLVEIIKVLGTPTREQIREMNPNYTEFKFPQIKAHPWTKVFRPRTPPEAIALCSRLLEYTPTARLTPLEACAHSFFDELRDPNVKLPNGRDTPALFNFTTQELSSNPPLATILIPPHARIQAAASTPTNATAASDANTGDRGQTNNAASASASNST

remaining binding at 1 µM (ADCK3): 5.4%
remaining binding at 1 µM (TAK1): 6.9%
IC50 (CK1γ3 [1]): < 15 nM and 14 nM
remaining binding at 1 µM (CK1γ1): 8.5%
IC50 (CK1γ2): < 15 nM and 2.22 nM
remaining binding at 1 µM (CK1γ3 [2]): 0.9%
IC50 (GSK3β (NLuc-GSK3β)): > 10000 nM
remaining binding at 1 µM (CSNK1A1): 3.1%
remaining binding at 1 µM (CLK2): 7.2%
Compound: COc1cnc(COc2ccc(F)c(F)c2)cc1-c1cc2c([nH]1)CCNC2=O [FP1-24-2, 2-(2-((3,4-difluorophenoxy)methyl)-5-methoxypyridin-4-yl)-1,5,6,7-tetrahydro-4H-pyrrolo[3,2-c]pyridin-4-one]
phosphorylation of LRP6 at site S1490 (LRP6; WNT3A 30 or 60 min, compared with dimethyl sulfoxide control): diminished
LRP6 phosphorylation at T1479 (LRP6; then exposed to WNT3A 30 or 60 min): did not increase
β-catenin stabilization (β-catenin): diminished
BAR activity with CK1γ3 overexpression [3]: decrease

— PMC9157009, “Protein proximity networks and functional evaluation of the casein kinase 1 gamma family reveal unique roles for CK1γ3 in WNT signaling” (The Journal of Biological Chemistry, 2022)
